PMC6954720, “Discovery of retinoic acid receptor agonists as proliferators of cardiac progenitor cells through a phenotypic screening approach” (Stem Cells Translational Medicine, 2019)
“Also recorded” adds a separate entry of the source. Where two headings read alike, the source gives them in different places.

What was measured:
[1] = tested on: human iPS-derived cardiac progenitor cells (CPCs); assay: CPC proliferation assay (nuclear count); assay type: cell-based; details: for % Effect-normalised cell count: primary screen, relative to basic FGF 100 ng/mL
Experimental: (§1) The CPC proliferation assay including image and data analysis was performed as previously described.14 Cardiac progenitor marker antibodies are listed in Table S3.
A library of 10 000 compounds was screened in singlicate at three concentrations (0.1, 1.0, and 10 μM) in the CPC proliferation assay. Each plate contained neutral controls, 0.1% DMSO and maximum controls, 100 ng/mL human basic fibroblast growth factor (FGF; Invitrogen, ThermoFisher Scientific, Waltham, Massachusetts). The data were analyzed using the Genedata Screener software (Genedata, Inc, Basel, Switzerland). […] Results were calculated using the following calculation method: compound % effect = 100 × [(X − min)/(max − min)], where X represents a normalized value for the compound based on the neutral and maximum controls.
The library was screened in three‐point concentration response (CR) at 0.1, 1.0, and 10 μM measuring proliferation of human induced pluripotent stem (iPS)‐derived CPCs with nuclear count, as measured by Hoechst staining, as the primary endpoint.

[2] = tested on: human iPS-derived cardiac progenitor cells (CPCs); assay: CPC proliferation assay (nuclear count); assay type: cell-based; details: 10-point concentration response
[3] = biological target: T1, RARG (gamma) ligand binding domain (Homo sapiens, UniProt P13631); assay: RAR LBD-SRC1-2 coactivator peptide recruitment assay, agonist format, RARG; assay type: biochemical; details: for EC50: read-out: RARγ pEC50 (converted)
T1 sequence (P13631 185-419 limits assumed): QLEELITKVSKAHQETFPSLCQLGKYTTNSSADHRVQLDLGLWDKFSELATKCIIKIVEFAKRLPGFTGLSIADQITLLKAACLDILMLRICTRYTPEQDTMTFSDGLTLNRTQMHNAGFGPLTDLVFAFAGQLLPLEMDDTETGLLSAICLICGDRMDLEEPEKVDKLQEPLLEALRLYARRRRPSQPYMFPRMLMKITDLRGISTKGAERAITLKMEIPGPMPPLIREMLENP
Experimental: (§2) RAR ligand binding domain (LBD)‐SRC1‐2 coactivator peptide (NCOA1_677‐700 biotinylated) recruitment assays were established for the three RAR isotypes RARA (alpha), RARB (beta), and RARG (gamma) to determine relative potencies. […] A total of 0.4 μL of a fixed concentration range of test ligands dissolved in dimethyl sulphoxide (DMSO) was added to assay plates using an acoustic liquid dispenser. […] The raw data were transformed to % effect using the equation: compound % effect = 100 × [(X − min)/(max − min)], where X represents the effect in the presence of test compound and max and min are the effects in presence of the maximum and minimum controls, respectively.
(§3) The data were plotted to generate concentration‐response profiles and the concentration‐response curves were fit to the data using the four‐parameter logistic smart fit method in the Genedata Screener software (Genedata, Inc).

[4] = biological target: T2, RARB (beta) ligand binding domain (Homo sapiens, UniProt P10826); assay: RAR LBD-SRC1-2 coactivator peptide recruitment assay, agonist format, RARB; assay type: biochemical; details: for EC50: read-out: RARβ pEC50 (converted)
T2 sequence (P10826 183-417 limits assumed): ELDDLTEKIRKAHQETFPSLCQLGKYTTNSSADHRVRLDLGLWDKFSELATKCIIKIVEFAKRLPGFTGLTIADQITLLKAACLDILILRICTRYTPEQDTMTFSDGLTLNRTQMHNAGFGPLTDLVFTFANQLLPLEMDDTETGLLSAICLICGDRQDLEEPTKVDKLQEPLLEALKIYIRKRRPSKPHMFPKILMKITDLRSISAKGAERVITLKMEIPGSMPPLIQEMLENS
Experimental: as §2, §3

[5] = biological target: T3, RARA (alpha) ligand binding domain (Homo sapiens, UniProt P10276); assay: RAR LBD-SRC1-2 coactivator peptide recruitment assay, agonist format, RARA; assay type: biochemical; details: for EC50: read-out: RARα pEC50 (converted)
T3 sequence (P10276 183-417 limits assumed): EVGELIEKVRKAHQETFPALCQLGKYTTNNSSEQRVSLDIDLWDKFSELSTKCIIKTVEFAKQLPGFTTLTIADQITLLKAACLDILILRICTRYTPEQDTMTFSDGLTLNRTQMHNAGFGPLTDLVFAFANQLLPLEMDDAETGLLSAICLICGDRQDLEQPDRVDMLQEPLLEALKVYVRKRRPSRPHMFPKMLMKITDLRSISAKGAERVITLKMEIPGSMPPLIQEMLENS
Experimental: as §2, §3

[6] = biological target: T2, RARB (beta) ligand binding domain; assay: RAR coactivator peptide recruitment assay, antagonist format, RARB; assay type: biochemical; details: for IC50: read-out: RARβ pIC50 (converted)
Experimental: as §2, §3

[7] = biological target: T3, RARA (alpha) ligand binding domain; assay: RAR coactivator peptide recruitment assay, antagonist format, RARA; assay type: biochemical; details: for IC50: read-out: RARα pIC50 (converted)
Experimental: as §2, §3

[8] = tested on: iPS-derived CPCs; details: absence of RAR agonist
Excerpt: Cells were fixed and nuclei stained on day 4 postplating and 3 days postcompound addition. […] The data represent the mean of two independent experiments each conducted in quadruplicate; error bars indicate SEM. […] The data for CPCs and CFs are obtained from two independent RNA preparations from each cell type

[9] = biological target: T1, RARG (gamma) ligand binding domain; assay: RAR coactivator peptide recruitment assay, antagonist format, RARG; assay type: biochemical; details: for IC50: 10 nM R-667, read-out: RARγ pIC50 (converted)
Experimental: as §2, §3

[10] = tested on: iPS-derived CPCs; assay: Cardiac progenitor marker antibody staining of treated CPCs; assay type: cell-based, human; details: 40 nM, 3 days
Experimental: as §1
A key requirement of the screen was that the expanded CPCs must retain their progenitor phenotype.
Figure 2 Cardiac progenitor cells (CPCs) retain progenitor markers after retinoic acid receptor agonist treatment. […] Larger images are representative merged images of Hoechst nuclear stain in blue and immunofluorescence of the indicated progenitor marker in green. Insets show the progenitor marker staining in gray scale at 3.3‐fold higher magnification. Scale bars: 50 μm

[11] = tested on: HuES6 hPSC-derived cardiac progenitors; assay: HuES6-derived cardiac progenitors replated on day 5: cell number, RT-qPCR, immunocytochemistry; assay type: cell-based, human; details: for terminal cardiac differentiation, in words / expression of cardiac progenitor markers vs untreated: 1 μM, day-5 replated cells, 4 days; for expression of cardiac progenitor markers vs untreated: with the exception of ISL1; for effect on cell proliferation / cell numbers, in words: 1.0 μM, day-5 replated progenitors, 4 days of exposure
Experimental: Insulin and signaling agonists were omitted after 1 day. On days 2‐3, the nascent mesodermal cells were specified to the cardiac lineage using 0.2 μM C‐59 (R&D Tocris) supplementation. Culture medium was replaced daily.
Basal cardiac progenitor medium was composed of DMEM/F12 (ThermoFisher Scientific), insulin/transferrin/selenium supplement, 0.1% human serum albumin (Biological Industries Inc, Cromwell, Connecticut), 1× chemically defined lipids (ThermoFisher Scientific), and antibiotics. RAR agonists (1 μM) were added from the day of passaging the cells. Samples were harvested and monitored after 4 days of treatment.
Cell numbers per well were quantified following single‐cell dissociation with Accutase and using standard Neubauer counting chambers. RT‐qPCR and immunocytochemistry were performed according to standard procedures. RPL37A served as housekeeping gene for normalization.

[12] = tested on: human cardiac fibroblasts (CFs); assay: CF proliferation assay (nuclear count)
Experimental: To ensure that these molecules were not general proliferators of all cardiac cells, they were also tested in a human CF proliferation assay31 using nuclear count as the endpoint.

[13] = tested on: RAR-responsive genes in CPCs; assay: RNA seq analysis of AM580-treated CPCs; assay type: cell-based, human; details: 4-hour and 24-hour time points
Experimental: CPC was seeded in fibronectin‐coated 24‐well plates, 150 000 cells in 0.5 mL media per well. […] Cell media were removed after 4 hours or 24 hours, and the cells were lysed for RNA preparation using the MagMax Total RNA Isolation kit. Triplicate samples were prepared for each treatment and time point. RNA integrity and concentration were analyzed on a fragment analyzer with the standard sensitivity RNA kit (Agilent, Santa Clara, California). RNA quality number was 8.2 on average.
A total of 1000 ng RNA per sample was processed with the TruSeq stranded mRNA kit (Illumina, San Diego, California) following the instructions from the manufacturer. […] Samples were pooled, diluted, and denatured according to Illumina's recommendations and sequenced on a NextSeq500 (High 150 cycles kit, reading 2 × 75 cycles). On average, samples had 13M reads with 93% of reads with >Q30.
RNA‐Seq data were processed using the bcbio pipeline version 0.9.7. Hisat2 version 2.0.2‐β aligner was used to align reads to the human genome version hg38. […] Differential expression analysis was performed on feature counts using DESeq2.32 Data quality was assessed using MultiQC.33 Genes with the lowest expression levels (less than five counts in at least two samples) were removed prior to differential expression estimation since they can be considered as nonexpressed.

[14] = tested on: RAR; assay: RAR coactivator recruitment assay (isotypes not separated); assay type: biochemical
Experimental: as §2, §3

[15] = iPSC-derived CPC proliferation, read-out: CPC pEC50 (converted)

Row | Structure (SMILES) | CPC proliferation, result in words [1] | EC50 [2, 15] [nM] | RARγ pEC50 (% top effect): % top effect [3] [%] | EC50 [3] [µM] | maximal effect (% top effect) [4] [%] | EC50 [4] [µM] | EC50 [5] [µM] | IC50 [6] [µM] | IC50 [7] [µM] | IC50 [9] [µM] | terminal cardiac differentiation, in words [11] | expression of cardiac progenitor markers vs untreated [11] | effect on cell proliferation / cell numbers, in words [11] | other results
1 | CC1=C(/C=C/C(C)=C\C=C\C(C)=C\C(=O)O)C(C)(C)CCC1 [9‐cis‐retinoic acid] | inactive | > 10000 | – | – | – | – | – | – | – | – | – | – | – | –
2 | CC1(C)CCC(C)(C)c2cc(C(=O)Nc3ccc(C(=O)O)c(F)c3)ccc21 [AGN 193312] | EC50 values in the low nanomolar range | 7.94 | 88 | 0.1 | 100 | 0.01 | 0.00398 | – | – | – | – | – | – | top effect (% of maximum control) [5]: 159%
3 | Cc1ccc(C2=CC(C)(C)Oc3c(Br)cc(C(=O)Nc4ccc(C(=O)O)c(F)c4)cc32)cc1 [AGN 194301] | – | > 10000 | – | > 20 | – | > 20 | > 20 | 0.00126 | 0.00251 | 0.02 | – | – | – | RARβ pIC50 (% top effect): % top effect ([6]; antagonist format, 10 nM TTNPB): 105%; RARα pIC50 (% top effect): % top effect ([7]; antagonist format, 10 nM ATRA): 108%; effect on CPC proliferation of antagonist alone [8]: did not proliferate the cells; also recorded: no effect on proliferation; toxicity to CPCs [8]: no signs of toxicity; RARγ pIC50 (% top effect): % top effect ([9]; 10 nM R-667): 106%
4 | CC1(C)CCC(C)(C)c2cc(NC(=O)c3ccc(C(=O)O)cc3)ccc21 [AM80] | EC50 values in the low nanomolar range | 7.94 | 119 | – | 149 | – | – | – | – | – | pronounced inhibition of terminal cardiac differentiation | enhanced the expression of cardiac progenitor markers | strong positive effects on cell proliferation | expression of cardiac progenitor markers Nkx2.5, Islet1, Gata4, PDGFRα after treatment [10]: retain expression
5 | CC1(C)CCC(C)(C)c2cc(C(=O)Nc3ccc(C(=O)O)cc3)ccc21 [AM580] | – | 6.31 | 99 | – | 104 | – | – | – | – | – | – | – | – | % Effect-normalised cell count ([1]; Log Concentration M -5 (10 μM)): 49.6%; % Effect-normalised cell count ([1]; Log Concentration M -6 (1.0 μM)): 76.4%; % Effect-normalised cell count ([1]; Log Concentration M -7 (0.1 μM)): 106%; expression of cardiac progenitor markers Nkx2.5, Islet1, Gata4, PDGFRα after treatment [10]: retain expression; CF proliferation, result in words [12]: inactive; mRNA expression of RAR-responsive genes (RARB, RBP1, CRABP2, CYP26A1) [13]: significant increase; EC50 ([2]; read-out: EC50, CPC proliferation): 5 nM
6 | Cc1cc2c(cc1-c1cc(/C=C/C(=O)O)ccc1O)C(C)(C)CCC2(C)C [CD 3254] | inactive | > 10000 | – | > 20 | – | > 20 | > 20 | > 20 | > 20 | > 20 | – | – | – | –
7 | CC1(C)CCC(C)(C)c2cc(C#Cc3ccc(C(=O)O)cc3)ccc21 [EC 23] | EC50 values in the low nanomolar range | 1.26 | – | – | – | – | – | – | – | – | pronounced inhibition of terminal cardiac differentiation | enhanced the expression of cardiac progenitor markers | strong positive effects on cell proliferation | –
8 | CC1=C(/C=C/C(C)=C/C=C/C(C)=C/CO)C(C)(C)CCC1 [Retinol] | no effect | > 10000 | – | > 20 | – | > 20 | > 20 | > 20 | > 20 | > 20 | – | – | – | activity in RAR coactivator recruitment assay, in words [14]: inactive
9 | CC1(C)CCC(C)(C)c2cc(C3(c4ccc(C(=O)O)cc4)OCCO3)ccc21 [SR 11237] | inactive | > 10000 | – | > 20 | – | > 20 | > 20 | > 20 | > 20 | – | – | – | – | –
10 | C/C(=C\c1ccc(C(=O)O)cc1)c1ccc2c(c1)C(C)(C)CCC2(C)C [TTNPB] | EC50 values in the low nanomolar range | 3.16 | – | – | – | – | – | – | – | – | pronounced inhibition of terminal cardiac differentiation | enhanced the expression of cardiac progenitor markers | strong positive effects on cell proliferation | –
